Measurements taken from patent publication US20120059162A1, “FUSED IMIDAZOLE DERIVATIVE HAVING TTK INHIBITORY ACTION” (Oncotherapy Science, Inc., priority 2009, published 2012).
Like-named read-outs stand apart in the source and are kept apart here.

Tests used:
[1] = tested on: A549; test: A549 assay: screening of cancer cell growth inhibiting compound; format: cell-based; details: Homo sapiens, A549 cells, read-out: A549 IC50
How it was run: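 A549 cells (1×10^4/ml) in D-MEM with 10% FBS were pre-incubated one day at 37 °C, then exposed to compound dilutions for three further days. Viable cell number read by WST-8 (1–4 hours), absorbance 450 nm (reference 620 nm); inhibition calculated relative to untreated wells.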

[2] = target: T1, TTK (Homo sapiens, UniProt P33981); test: TTK assay: screening of TTK kinase activity suppressing action using p38 MAPK peptide; format: biochemical; details: read-out: TTK IC50
T1 sequence (P33981 1-857): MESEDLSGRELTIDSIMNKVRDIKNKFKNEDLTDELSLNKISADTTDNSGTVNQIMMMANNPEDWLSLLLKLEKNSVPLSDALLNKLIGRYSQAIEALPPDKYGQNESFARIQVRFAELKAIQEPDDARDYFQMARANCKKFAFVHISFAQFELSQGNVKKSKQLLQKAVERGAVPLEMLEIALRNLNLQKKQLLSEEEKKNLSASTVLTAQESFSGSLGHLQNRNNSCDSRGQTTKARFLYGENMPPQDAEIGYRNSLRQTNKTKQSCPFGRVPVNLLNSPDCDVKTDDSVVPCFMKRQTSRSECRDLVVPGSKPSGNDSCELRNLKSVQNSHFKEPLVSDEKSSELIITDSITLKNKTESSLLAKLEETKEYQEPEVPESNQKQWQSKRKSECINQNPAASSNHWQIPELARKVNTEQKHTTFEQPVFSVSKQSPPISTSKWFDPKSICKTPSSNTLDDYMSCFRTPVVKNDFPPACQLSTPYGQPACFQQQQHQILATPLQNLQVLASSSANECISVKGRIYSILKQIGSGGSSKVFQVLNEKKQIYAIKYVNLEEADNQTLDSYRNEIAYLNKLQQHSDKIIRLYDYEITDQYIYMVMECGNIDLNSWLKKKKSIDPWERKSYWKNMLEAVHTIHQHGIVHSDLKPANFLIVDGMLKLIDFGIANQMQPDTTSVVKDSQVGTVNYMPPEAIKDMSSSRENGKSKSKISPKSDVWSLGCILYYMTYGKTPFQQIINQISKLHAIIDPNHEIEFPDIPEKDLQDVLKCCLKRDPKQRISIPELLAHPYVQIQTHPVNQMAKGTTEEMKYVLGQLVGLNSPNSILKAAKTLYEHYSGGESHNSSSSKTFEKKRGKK
How it was run: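 TTK (4 μg/ml in enzyme solution) mixed with p38 MAPK peptide and ATP (each 60 μM in substrate solution) in Tris-HCl pH 7.5 with MgCl2, DTT, Na3VO4, β-glycerophosphate, BSA. Reaction aliquot captured on NeutrAvidin plate, detected with Eu-labelled anti-mouse IgG by time-resolved fluorescence; inhibition relative to no-compound signal.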

Work on `CC(CNc1cc(NC2CCCCC2)nn2c(-c3ccc(C(=O)NC4CC4)cc3)cnc12)C(F)(F)F` (centres unmarked) [Example 2-162] yielded an IC50 ([1]; 72 h, three days, WST-8) of 50 to 500 nM and an IC50 ([2]; p38 MAPK peptide substrate) of 3.6 nM.
`O=C(NC1CC1)c1ccc(-c2cnc3c(NC[C@H]4CC[C@H](O)CC4)cc(NC4CCCCC4)nn23)cc1` [Example 2-164] gave an IC50 ([1]; 72 h, three days, WST-8) of 50 to 500 nM and an IC50 ([2]; p38 MAPK peptide substrate) of 3.3 nM.
`O=C(NC1CC1)c1ccc(-c2cnc3c(NCc4ccc(=O)[nH]c4)cc(NC4CCCCC4)nn23)cc1` [Example 2-165] was tested, and the IC50 ([1]; 72 h, three days, WST-8) was 1000 to 10000 nM and the IC50 ([2]; p38 MAPK peptide substrate) was 5.6 nM.
With `COC(C)CNc1cc(NC2CCCCC2)nn2c(-c3ccc(C(=O)NC4CC4)cc3)cnc12` (centres unmarked) [Example 2-166] the IC50 ([1]; 72 h, three days, WST-8) was 50 to 500 nM and the IC50 ([2]; p38 MAPK peptide substrate) was 4.5 nM.
With `O=C(NC1CC1)c1ccc(-c2cnc3c(NCC4CCCO4)cc(NC4CCCCC4)nn23)cc1` (centres unmarked) [Example 2-167] the IC50 ([1]; values given as IC50 intervals) was 50 to 500 nM and the IC50 [2] was 3.9 nM.
Work on `CC(CO)CNc1cc(NC2CCCCC2)nn2c(-c3ccc(C(=O)NC4CC4)cc3)cnc12` (centres unmarked) [Example 2-168] yielded an IC50 ([1]; values given as IC50 intervals) of 50 to 500 nM and an IC50 [2] of 3.3 nM.
Work on `O=C(NC1CC1)c1ccc(-c2cnc3c(NCC4(O)CCOCC4)cc(NC4CCCCC4)nn23)cc1` [Example 2-169] yielded an IC50 ([1]; values given as IC50 intervals) of 50 to 500 nM and an IC50 [2] of 7.2 nM.
`CC1(Oc2cc(NCC3CCOCC3)c3ncc(-c4ccc(C(=O)NC5CC5)cc4)n3n2)CCCCC1` [Example 2-171, N-Cyclopropyl-4-(6-(1-methylcyclohexyloxy)-8-((tetrahydro-2H-pyran-4-yl)methylamino)imidazo[1,2-b]pyridazin-3-yl)benzamide] was tested, and the IC50 ([1]; values given as IC50 intervals) was 50 to 500 nM and the IC50 [2] was 3.5 nM.
For `COc1cc(NCC2CCOCC2)c2ncc(-c3ccc(C(=O)NC4CC4)cc3)n2n1` [Example 2-172], the IC50 ([1]; values given as IC50 intervals) was 500 to 1000 nM and the IC50 [2] was 20.3 nM.
`O=C(NC1CC1)c1ccc(-c2cnc3c(NCC4CCOCC4)cc(OC4CCCC4)nn23)cc1` [Example 2-173] gave an IC50 ([1]; values given as IC50 intervals) of 50 to 500 nM and an IC50 [2] of 5.4 nM.
With `CC(Oc1cc(NCC2CCOCC2)c2ncc(-c3ccc(C(=O)NC4CC4)cc3)n2n1)c1ccccc1` (centres unmarked) [Example 2-174] the IC50 ([1]; values given as IC50 intervals) was 50 to 500 nM and the IC50 [2] was 14.1 nM.
Work on `COCCOc1cc(NCC2CCOCC2)c2ncc(-c3ccc(C(=O)NC4CC4)cc3)n2n1` [Example 2-175] yielded an IC50 ([1]; values given as IC50 intervals) of 50 to 500 nM and an IC50 [2] of 11.4 nM.
`N#Cc1ccc(Oc2cc(NCC3CCOCC3)c3ncc(-c4ccc(C(=O)NC5CC5)cc4)n3n2)cc1` [Example 2-177] gave an IC50 ([1]; values given as IC50 intervals) of 50 to 500 nM and an IC50 [2] of 14.3 nM.
In the case of `CC(C)Oc1cc(NCC2CCOCC2)c2ncc(-c3ccc(C(=O)NC4CC4)cc3)n2n1` [Example 2-178], the IC50 ([1]; values given as IC50 intervals) is reported as 50 to 500 nM and the IC50 [2] is reported as 7.1 nM.
With `COc1ccc(Oc2cc(NCC3CCOCC3)c3ncc(-c4ccc(C(=O)NC5CC5)cc4)n3n2)cc1` [Example 2-179] the IC50 ([1]; values given as IC50 intervals) was ≤ 50 nM and the IC50 [2] was 3.7 nM.
`O=C(NC1CC1)c1ccc(-c2cnc3c(NCC4CCOCC4)cc(OC4CCNCC4)nn23)cc1` [Example 2-180] was tested, and the IC50 ([1]; values given as IC50 intervals) was 1000 to 10000 nM and the IC50 [2] was 12.2 nM.
With `O=C(NC1CC1)c1ccc(-c2cnc3c(NCC4CCOCC4)cc(OC4CCCCCC4)nn23)cc1` [Example 2-181] the IC50 ([1]; values given as IC50 intervals) was 50 to 500 nM and the IC50 [2] was 10.2 nM.
For `CC(C)(C)Oc1cc(NCC2CCOCC2)c2ncc(-c3ccc(C(=O)NC4CC4)cc3)n2n1` [Example 2-182], the IC50 ([1]; values given as IC50 intervals) was 50 to 500 nM and the IC50 [2] was 8.4 nM.
For `O=C(NC1CC1)c1ccc(-c2cnc3c(NCC4CCOCC4)cc(OCC(F)(F)F)nn23)cc1` [Example 2-183], the IC50 ([1]; values given as IC50 intervals) was 50 to 500 nM and the IC50 [2] was 5.7 nM.
`CC(Oc1cc(NCC2CCOCC2)c2ncc(-c3ccc(C(=O)NC4CC4)cc3)n2n1)C(F)(F)F` (centres unmarked) [Example 2-184] gave an IC50 ([1]; values given as IC50 intervals) of 50 to 500 nM and an IC50 [2] of 5.6 nM.
Work on `CC(C)(Oc1cc(NCC2CCOCC2)c2ncc(-c3ccc(C(=O)NC4CC4)cc3)n2n1)C(F)(F)F` [Example 2-185] yielded an IC50 ([1]; values given as IC50 intervals) of 50 to 500 nM and an IC50 [2] of 2.7 nM.
`O=C(NC1CC1)c1ccc(-c2cnc3c(NCC4CCOCC4)cc(OC4CCC(C(F)(F)F)CC4)nn23)cc1` (centres unmarked) [Example 2-186] was tested, and the IC50 ([1]; values given as IC50 intervals) was 500 to 1000 nM and the IC50 [2] was 6.8 nM.
`CC1(C)CCC(Oc2cc(NCC3CCOCC3)c3ncc(-c4ccc(C(=O)NC5CC5)cc4)n3n2)CC1` [Example 2-187] was tested, and the IC50 ([1]; values given as IC50 intervals) was 500 to 1000 nM and the IC50 [2] was 7.8 nM.
Work on `O=C(NC1CC1)c1ccc(-c2cnc3c(NCC4CCOCC4)cc(OC4CCCCC4O)nn23)cc1` (centres unmarked) [Example 2-188] yielded an IC50 ([1]; values given as IC50 intervals) of 50 to 500 nM and an IC50 [2] of 5.3 nM.
Work on `NC1CCCCC1Oc1cc(NCC2CCOCC2)c2ncc(-c3ccc(C(=O)NC4CC4)cc3)n2n1` (centres unmarked) [Example 2-189] yielded an IC50 ([1]; values given as IC50 intervals) of 500 to 1000 nM and an IC50 [2] of 8.6 nM.
